# Test results as given in PMC6747318, “Mutual Enhancement of Opioid and Adrenergic Receptors by Combinations of Opioids and Adrenergic Ligands Is Reflected in Molecular Complementarity of Ligands: Drug Development Possibilities” (International Journal of Molecular Sciences, 2019).
# Counter-ions that a name gives are not always drawn.
# Target: not listed separately
# Assay: UV spectroscopy binding between compounds: binding to naloxone
# Conditions: pH 7.4 sodium phosphate buffer, read-out: Kd @ 200 nm, binding to NAL
row,SMILES,Kd [µM]
1,NCCc1ccc(O)c(O)c1 [Dopamine],90
2,COc1cc(CC(=O)O)ccc1O [Homovanillic Acid],85
3,CC(C)NCC(O)c1ccc(O)c(O)c1 (stereo not drawn) [Isoproterenol],13
4,COc1ccc2[nH]cc(CCNC(C)=O)c2c1 [Melatonin],12
5,NC[C@H](O)c1ccc(O)c(O)c1 [Norepinephrine HCl],80
6,NCC(O)c1ccc(O)cc1 (stereo not drawn) [Octopamine],55
7,N[C@@H](Cc1ccccc1)C(=O)O [Phenylalanine],70
8,CNC[C@H](O)c1cccc(O)c1 [Phenylephrine],20
9,CC(C)(C)NCC(O)c1ccc(O)c(CO)c1 (stereo not drawn) [Salbutamol],180
10,NCCc1ccc(O)cc1 [Tyramine],90
11,N[C@@H](Cc1ccc(O)cc1)C(=O)O [Tyrosine],75

# Target: not listed separately
# Assay: UV spectroscopy binding between compounds: binding to morphine sulfate
# Conditions: read-out: Kd @ 200 nm, binding to Morph; UV spectroscopy, pH 7.4 sodium phosphate buffer; single binding constant
row,SMILES,Kd [µM]
1,NCCc1ccc(O)c(O)c1 [Dopamine],0.6
2,COc1cc(CC(=O)O)ccc1O [Homovanillic Acid],> 1000
3,CC(C)NCC(O)c1ccc(O)c(O)c1 (stereo not drawn) [Isoproterenol],0.1
4,"N[C@@H](Cc1ccc(O)c(O)c1)C(=O)O [L-DOPA, L-3,4-dihydroxyphenylalanine]",> 1000
5,COc1ccc2[nH]cc(CCNC(C)=O)c2c1 [Melatonin],300
6,NC[C@H](O)c1ccc(O)c(O)c1 [Norepinephrine HCl],0.4
7,NCC(O)c1ccc(O)cc1 (stereo not drawn) [Octopamine],3.2
8,N[C@@H](Cc1ccccc1)C(=O)O [Phenylalanine],> 1000
9,CNC[C@H](O)c1cccc(O)c1 [Phenylephrine],0.13
10,CC(C)(C)NCC(O)c1ccc(O)c(CO)c1 (stereo not drawn) [Salbutamol],0.3
11,NCCc1ccc(O)cc1 [Tyramine],50
12,N[C@@H](Cc1ccc(O)cc1)C(=O)O [Tyrosine],> 1000

# Target: not listed separately
# Assay: UV spectroscopy binding between compounds: binding to glucose
# Conditions: read-out: Kd @ 200 nm, binding to Glucose, pH 7.4 sodium phosphate buffer
row,SMILES,Kd [µM]
1,NCCc1ccc(O)c(O)c1 [Dopamine],> 1000
2,COc1cc(CC(=O)O)ccc1O [Homovanillic Acid],> 1000
3,CC(C)NCC(O)c1ccc(O)c(O)c1 (stereo not drawn) [Isoproterenol],> 1000
4,"N[C@@H](Cc1ccc(O)c(O)c1)C(=O)O [L-DOPA, L-3,4-dihydroxyphenylalanine]",> 1000
5,COc1ccc2[nH]cc(CCNC(C)=O)c2c1 [Melatonin],> 1000
6,NC[C@H](O)c1ccc(O)c(O)c1 [Norepinephrine HCl],> 1000
7,NCC(O)c1ccc(O)cc1 (stereo not drawn) [Octopamine],> 1000
8,N[C@@H](Cc1ccccc1)C(=O)O [Phenylalanine],> 1000
9,CNC[C@H](O)c1cccc(O)c1 [Phenylephrine],> 1000
10,CC(C)(C)NCC(O)c1ccc(O)c(CO)c1 (stereo not drawn) [Salbutamol],> 1000
11,NCCc1ccc(O)cc1 [Tyramine],> 1000
12,N[C@@H](Cc1ccc(O)cc1)C(=O)O [Tyrosine],> 1000

# Target: not listed separately
# Assay: UV spectroscopy binding between compounds: binding to propranolol
# Conditions: read-out: Kd @ 200 nm, binding to Prop, high affinity binding; double curve, first value
row,SMILES,Kd [µM]
1,CC(C)(C)NCC(O)c1ccc(O)c(CO)c1 (stereo not drawn) [Salbutamol],1

# Same assay, conditions: read-out: Kd @ 200 nm, binding to Prop, low affinity binding; double curve, second value
row,SMILES,Kd [µM]
1,CC(C)(C)NCC(O)c1ccc(O)c(CO)c1 (stereo not drawn) [Salbutamol],130

# Same assay, conditions: read-out: Kd @ 200 nm, binding to Prop; UV spectroscopy, pH 7.4 sodium phosphate buffer; single binding constant
row,SMILES,Kd [µM]
1,NCCc1ccc(O)c(O)c1 [Dopamine],100
2,CC(C)NCC(O)c1ccc(O)c(O)c1 (stereo not drawn) [Isoproterenol],11
3,"N[C@@H](Cc1ccc(O)c(O)c1)C(=O)O [L-DOPA, L-3,4-dihydroxyphenylalanine]",15
4,COc1ccc2[nH]cc(CCNC(C)=O)c2c1 [Melatonin],90
5,NC[C@H](O)c1ccc(O)c(O)c1 [Norepinephrine HCl],> 1000
6,CNC[C@H](O)c1cccc(O)c1 [Phenylephrine],20
7,NCCc1ccc(O)cc1 [Tyramine],80
8,N[C@@H](Cc1ccc(O)cc1)C(=O)O [Tyrosine],20

# Target: MuOPR 121–131 (Homo sapiens, UniProt P35372)
# Assay: not given
# Conditions: not given
row,SMILES,binding to transmembrane peptide Mu 121
1,NCCc1ccc(O)c(O)c1 [Dopamine],no measurable binding

# Target: mu opioid receptor (muOPR) peptide 38–51 (Homo sapiens, UniProt P35372)
# Assay: biochemical
# Conditions: not given
row,SMILES,Kd [µM]
1,CC(C)NCC(O)c1ccc(O)c(O)c1 (stereo not drawn) [Isoproterenol],~1.3
2,CNC[C@H](O)c1cccc(O)c1 [Phenylephrine],~1.3

# Target: not listed separately
# Assay: UV spectroscopy binding between compounds: binding to amphetamine
# Conditions: read-out: Kd @ 200 nm, binding to Amph, high affinity binding; double curve, first value
row,SMILES,Kd [µM]
1,COc1cc(CC(=O)O)ccc1O [Homovanillic Acid],1.5

# Same assay, conditions: read-out: Kd @ 200 nm, binding to Amph, low affinity binding; double curve, second value
row,SMILES,Kd [µM]
1,COc1cc(CC(=O)O)ccc1O [Homovanillic Acid],90

# Same assay, conditions: read-out: Kd @ 200 nm, binding to Amph; UV spectroscopy, pH 7.4 sodium phosphate buffer; single binding constant
row,SMILES,Kd [µM]
1,NCCc1ccc(O)c(O)c1 [Dopamine],90
2,CC(C)NCC(O)c1ccc(O)c(O)c1 (stereo not drawn) [Isoproterenol],0.1
3,"N[C@@H](Cc1ccc(O)c(O)c1)C(=O)O [L-DOPA, L-3,4-dihydroxyphenylalanine]",11
4,COc1ccc2[nH]cc(CCNC(C)=O)c2c1 [Melatonin],70
5,NC[C@H](O)c1ccc(O)c(O)c1 [Norepinephrine HCl],80
6,NCC(O)c1ccc(O)cc1 (stereo not drawn) [Octopamine],100
7,N[C@@H](Cc1ccccc1)C(=O)O [Phenylalanine],85
8,CNC[C@H](O)c1cccc(O)c1 [Phenylephrine],17
9,CC(C)(C)NCC(O)c1ccc(O)c(CO)c1 (stereo not drawn) [Salbutamol],0.6
10,NCCc1ccc(O)cc1 [Tyramine],60
11,N[C@@H](Cc1ccc(O)cc1)C(=O)O [Tyrosine],53

# Target: not listed separately
# Assay: UV spectroscopy binding between compounds: binding to riboflavin
# Conditions: pH 7.4 sodium phosphate buffer, read-out: Kd @ 200 nm, binding to Ribo
row,SMILES,Kd [µM]
1,NCCc1ccc(O)c(O)c1 [Dopamine],> 1000
2,COc1cc(CC(=O)O)ccc1O [Homovanillic Acid],70
3,CC(C)NCC(O)c1ccc(O)c(O)c1 (stereo not drawn) [Isoproterenol],> 1000
4,"N[C@@H](Cc1ccc(O)c(O)c1)C(=O)O [L-DOPA, L-3,4-dihydroxyphenylalanine]",> 1000
5,NC[C@H](O)c1ccc(O)c(O)c1 [Norepinephrine HCl],> 1000
6,NCC(O)c1ccc(O)cc1 (stereo not drawn) [Octopamine],30
7,N[C@@H](Cc1ccccc1)C(=O)O [Phenylalanine],50
8,CNC[C@H](O)c1cccc(O)c1 [Phenylephrine],> 1000
9,CC(C)(C)NCC(O)c1ccc(O)c(CO)c1 (stereo not drawn) [Salbutamol],50
10,NCCc1ccc(O)cc1 [Tyramine],40
11,N[C@@H](Cc1ccc(O)cc1)C(=O)O [Tyrosine],> 1000

# Target: not listed separately
# Assay: UV spectroscopy binding between compounds: binding to ascorbic acid
# Conditions: read-out: Kd @ 200 nm, binding to Asc, pH 7.4 sodium phosphate buffer
row,SMILES,Kd [µM]
1,NCCc1ccc(O)c(O)c1 [Dopamine],100
2,COc1cc(CC(=O)O)ccc1O [Homovanillic Acid],> 1000
3,CC(C)NCC(O)c1ccc(O)c(O)c1 (stereo not drawn) [Isoproterenol],130
4,"N[C@@H](Cc1ccc(O)c(O)c1)C(=O)O [L-DOPA, L-3,4-dihydroxyphenylalanine]",100
5,COc1ccc2[nH]cc(CCNC(C)=O)c2c1 [Melatonin],400
6,NC[C@H](O)c1ccc(O)c(O)c1 [Norepinephrine HCl],110
7,NCC(O)c1ccc(O)cc1 (stereo not drawn) [Octopamine],220
8,N[C@@H](Cc1ccccc1)C(=O)O [Phenylalanine],> 1000
9,CNC[C@H](O)c1cccc(O)c1 [Phenylephrine],> 1000
10,CC(C)(C)NCC(O)c1ccc(O)c(CO)c1 (stereo not drawn) [Salbutamol],160
11,NCCc1ccc(O)cc1 [Tyramine],200
12,N[C@@H](Cc1ccc(O)cc1)C(=O)O [Tyrosine],270

# Target: methionine-enkephalin (Homo sapiens, UniProt P01210)
# Assay: UV spectroscopy binding between compounds: binding to methionine-enkephalin
# Design: M-Enk = methionine-enkephalin; purchased Sigma-Aldrich
# Conditions: Kd @ 200 nm, binding to M-Enk, UV spectroscopy, pH 7.4 sodium phosphate buffer; single binding constant
row,SMILES,Kd [µM]
1,NCCc1ccc(O)c(O)c1 [Dopamine],30
2,COc1cc(CC(=O)O)ccc1O [Homovanillic Acid],80
3,CC(C)NCC(O)c1ccc(O)c(O)c1 (stereo not drawn) [Isoproterenol],40
4,"N[C@@H](Cc1ccc(O)c(O)c1)C(=O)O [L-DOPA, L-3,4-dihydroxyphenylalanine]",70
5,COc1ccc2[nH]cc(CCNC(C)=O)c2c1 [Melatonin],130
6,NCC(O)c1ccc(O)cc1 (stereo not drawn) [Octopamine],80
7,CC(C)(C)NCC(O)c1ccc(O)c(CO)c1 (stereo not drawn) [Salbutamol],30
8,NCCc1ccc(O)cc1 [Tyramine],12

# Same assay, conditions: Kd @ 200 nm, binding to M-Enk, high affinity binding, double curve, first value
row,SMILES,Kd [µM]
1,NC[C@H](O)c1ccc(O)c(O)c1 [Norepinephrine HCl],5.3

# Same assay, conditions: UV spectroscopy, pH 7.4 sodium phosphate buffer; single binding constant; read-out: Kd @ 200 nm, binding to M-Enk
row,SMILES,Kd [µM]
1,N[C@@H](Cc1ccccc1)C(=O)O [Phenylalanine],> 1000
2,N[C@@H](Cc1ccc(O)cc1)C(=O)O [Tyrosine],> 1000

# Same assay, conditions: read-out: Kd @ 200 nm, binding to M-Enk, low affinity binding; double curve, second value
row,SMILES,Kd [µM]
1,NC[C@H](O)c1ccc(O)c(O)c1 [Norepinephrine HCl],35

# Target: not listed separately
# Assay: UV spectroscopy binding between compounds: binding to methadone
# Conditions: pH 7.4 sodium phosphate buffer, read-out: Kd @ 200 nm, binding to Meth
row,SMILES,Kd [µM]
1,NCCc1ccc(O)c(O)c1 [Dopamine],200
2,COc1cc(CC(=O)O)ccc1O [Homovanillic Acid],> 1000
3,CC(C)NCC(O)c1ccc(O)c(O)c1 (stereo not drawn) [Isoproterenol],13
4,"N[C@@H](Cc1ccc(O)c(O)c1)C(=O)O [L-DOPA, L-3,4-dihydroxyphenylalanine]",80
5,COc1ccc2[nH]cc(CCNC(C)=O)c2c1 [Melatonin],300
6,NC[C@H](O)c1ccc(O)c(O)c1 [Norepinephrine HCl],70
7,NCC(O)c1ccc(O)cc1 (stereo not drawn) [Octopamine],> 1000
8,N[C@@H](Cc1ccccc1)C(=O)O [Phenylalanine],> 1000
9,CNC[C@H](O)c1cccc(O)c1 [Phenylephrine],> 1000
10,CC(C)(C)NCC(O)c1ccc(O)c(CO)c1 (stereo not drawn) [Salbutamol],> 1000
11,NCCc1ccc(O)cc1 [Tyramine],210
12,N[C@@H](Cc1ccc(O)cc1)C(=O)O [Tyrosine],250
